Several values for one entry are separate records, joined by “and”; a condition that tells them apart may be missing. Identical values can stand only once. Like-named read-outs stand apart in the source and are kept apart here.
Tests used:
[1] = target: T1, progesterone receptor (PR)-β (Homo sapiens, UniProt P06401); assay: Steroid receptor specificity: PRE-luciferase reporter in LNCaP cells; type: cell-based; settings: 10 μM compound, 10 nM 4-pregnene-3,20-dione, 48 h
T1 construct: expressed in transfected cells; host or cells: LNCaP
T1 sequence (P06401 1-933): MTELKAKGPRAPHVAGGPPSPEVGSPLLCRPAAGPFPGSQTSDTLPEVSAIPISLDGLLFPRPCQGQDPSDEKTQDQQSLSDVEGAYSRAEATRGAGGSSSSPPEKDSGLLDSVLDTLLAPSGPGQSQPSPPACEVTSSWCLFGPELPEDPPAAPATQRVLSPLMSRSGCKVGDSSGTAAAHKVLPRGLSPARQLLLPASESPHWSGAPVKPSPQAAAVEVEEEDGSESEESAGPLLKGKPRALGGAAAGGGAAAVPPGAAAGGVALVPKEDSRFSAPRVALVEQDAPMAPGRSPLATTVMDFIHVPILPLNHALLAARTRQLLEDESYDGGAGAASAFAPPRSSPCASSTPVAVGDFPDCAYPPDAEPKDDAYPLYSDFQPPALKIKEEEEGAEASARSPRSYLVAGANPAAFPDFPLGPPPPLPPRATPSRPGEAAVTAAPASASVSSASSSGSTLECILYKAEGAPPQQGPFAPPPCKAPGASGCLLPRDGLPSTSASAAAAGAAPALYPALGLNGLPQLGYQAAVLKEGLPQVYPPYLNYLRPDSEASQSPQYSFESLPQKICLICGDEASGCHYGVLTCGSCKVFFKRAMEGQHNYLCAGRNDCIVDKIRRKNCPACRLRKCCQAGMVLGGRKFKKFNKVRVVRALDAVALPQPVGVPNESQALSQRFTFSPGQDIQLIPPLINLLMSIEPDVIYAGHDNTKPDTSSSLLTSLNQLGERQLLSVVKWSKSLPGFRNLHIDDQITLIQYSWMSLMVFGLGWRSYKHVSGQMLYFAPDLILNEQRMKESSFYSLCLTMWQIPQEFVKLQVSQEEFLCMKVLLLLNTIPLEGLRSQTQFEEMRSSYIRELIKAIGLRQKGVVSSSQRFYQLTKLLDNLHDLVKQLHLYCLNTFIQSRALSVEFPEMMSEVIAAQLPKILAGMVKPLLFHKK
Protocol: LNCaP cells were transfected with the reporter plasmid PSA(6.1kb)-luciferase, PRE-luciferase, or GRE-luciferase and expression vector for progesterone receptor (PR)-β or glucocorticoid receptor (GR)-α in serum-free, phenol red-free medium using Lipofectin (Invitrogen). […] After 48 h of treatment, cells were lysed and analyzed for luciferase activities.
FIGURE 1. […] A, LNCaP cells were transfected with PSA (6.1 kb)-luciferase, PRE-luciferase, or GRE-luciferase reporters and expression vector for PRβ or GRα. […] Error bars represent mean percentage of vehicle activity ±S.E. of at least three independent experiments with triplicate wells. SINT1, 10 μM; […]; ***, p < 0.001. […]. Error bars represents mean ± S.E. of three technical replicates. […] DAPI staining indicates the location of the nucleus. Scale bars, 20 μm.

[2] = Lability of SINT1 over the course of the studies; type: physicochemical; settings: activity decreased over the course of the studies
Protocol: SINT1 is labile, and over the course of completing these studies its activity decreased. […] Therefore, we first evaluated its pharmacokinetics before in vivo studies were carried out to determine dose and route of delivery.

[3] = target: T2, endogenous AR (Homo sapiens, UniProt P10275, T878A); assay: Steroid receptor specificity: PSA(6.1kb)-luciferase reporter in LNCaP cells; type: cell-based; settings: 10 μM compound, 1 nM R1881, 48 h
T2 construct: endogenous in cells; host or cells: LNCaP
T2 sequence (P10275 1-920 T878A): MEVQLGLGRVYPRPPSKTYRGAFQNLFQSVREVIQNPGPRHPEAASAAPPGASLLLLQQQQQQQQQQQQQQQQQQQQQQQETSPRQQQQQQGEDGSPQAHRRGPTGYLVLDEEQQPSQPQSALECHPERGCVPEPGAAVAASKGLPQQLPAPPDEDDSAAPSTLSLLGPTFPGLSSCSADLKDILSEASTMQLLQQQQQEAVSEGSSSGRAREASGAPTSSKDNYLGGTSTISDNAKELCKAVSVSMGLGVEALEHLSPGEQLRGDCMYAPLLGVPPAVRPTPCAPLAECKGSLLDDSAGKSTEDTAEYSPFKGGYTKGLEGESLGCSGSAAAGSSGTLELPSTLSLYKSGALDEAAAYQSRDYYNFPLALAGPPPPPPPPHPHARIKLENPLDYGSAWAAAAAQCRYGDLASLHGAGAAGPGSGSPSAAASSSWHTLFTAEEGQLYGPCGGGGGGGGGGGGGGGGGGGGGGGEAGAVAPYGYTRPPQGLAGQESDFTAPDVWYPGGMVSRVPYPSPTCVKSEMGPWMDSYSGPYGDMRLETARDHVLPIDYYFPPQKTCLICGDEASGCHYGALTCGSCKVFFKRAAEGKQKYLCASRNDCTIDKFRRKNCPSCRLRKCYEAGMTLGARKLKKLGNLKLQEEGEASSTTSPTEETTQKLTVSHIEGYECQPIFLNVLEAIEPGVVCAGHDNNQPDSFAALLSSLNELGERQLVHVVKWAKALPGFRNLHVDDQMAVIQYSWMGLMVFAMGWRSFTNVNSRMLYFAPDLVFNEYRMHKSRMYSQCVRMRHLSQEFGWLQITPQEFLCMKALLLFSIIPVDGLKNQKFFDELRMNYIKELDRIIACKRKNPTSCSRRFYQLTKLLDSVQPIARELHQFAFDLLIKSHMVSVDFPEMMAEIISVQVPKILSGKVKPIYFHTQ

[4] = Pharmacokinetics in CD-1 mice; type: in vivo; settings: single intravenous dose 50 mg/kg
Protocol: Pharmacokinetics assays were performed by NAEJA Pharmaceutical Inc. in a total of 27 CD-1 mice, which received a single intravenous SINT1 dose of 50 mg/kg of body weight. Blood samples were collected during a period of 2.5 min to 8 h postdosing from three mice per time point. Plasma concentrations of SINT1 and pharmacokinetics parameters were determined.

[5] = mice sets 1-3 and mean ± S.D., mean

For `CCC(=O)NC(CC(C)C(Cl)(Cl)Cl)C(=O)N1C(=O)C=C(OC)C1CC(C)C(Cl)Cl` (centres unmarked) [SINT1, Sintokamide A], which “PR transcriptional activity (PRE-luciferase)” value [1] is on record?
Its value is “did not affect”.

What about the stability [2] of the same molecule?
The stability was “labile”.

What about the “androgen-induced activity of endogenous AR (PSA (6.1 kb)-luciferase)” value [3] of the same molecule?
Its value is “significantly inhibited”.

And the Cmax ([4]; CD-1, mouse, plasma, iv, 50 mg/kg, plasma, mice sets 1-3 and mean ± S.D., read-out: Cmax)?
The Cmax was 3990 ng/mL.

What about the AUC(0-inf) ([4]; CD-1, mouse, plasma, iv, 50 mg/kg, mice sets 1-3 and mean ± S.D.) of the same molecule?
The AUC(0-inf) was 1840 ng·h/mL.

And the clearance ([4]; CD-1, mouse, plasma, iv, 50 mg/kg, mice sets 1-3 and mean ± S.D., read-out: Cl (plasma clearance) (converted))?
Its clearance is 366 mL/min/kg.

What about the Vd ([4]; CD-1, mouse, plasma, iv, 50 mg/kg, mice sets 1-3 and mean ± S.D., read-out: Vd (volume of distribution)) of the same molecule?
Its Vd is 43.7 L/kg.

And the half-life ([4]; CD-1, mouse, plasma, iv, 50 mg/kg, mice sets 1-3 and mean ± S.D., read-out: t½ (elimination half-life) (converted))?
Its half-life is 1.38 h.

What about the Cmax ([4]; CD-1, mouse, plasma, iv, 50 mg/kg, read-out: Cmax in plasma) of the same molecule?
The Cmax was ~8 µM.

And the Cmax ([4]; plasma, mice sets 1-3 and mean ± S.D.)?
Its Cmax is 4440 ng/mL and 4030 ng/mL.

What about the Cmax ([4]; plasma, mice sets 1-3 and mean ± S.D., mean) of the same molecule?
The Cmax was 4150 ± 250 ng/mL.

What about the AUCinf ([4]; mice sets 1-3 and mean ± S.D.) of the same molecule?
The AUCinf was 2370 ng·h/mL and 1510 ng·h/mL.

And the “Cl (plasma clearance)” value ([4]; mice sets 1-3 and mean ± S.D.)?
The value was 284 mL/min/kg and 446.7 mL/min/kg.

And the “t½ (elimination half-life)” value ([4]; mice sets 1-3 and mean ± S.D.)?
The value was 1.10 h and 1.01 h.

And the AUCinf [4, 5]?
The AUCinf was 1900 ± 430 ng·h/mL.

And the “Cl (plasma clearance)” value [4, 5]?
The value was 365.5 ± 81.3 mL/min/kg.

What about the “t½ (elimination half-life)” value [4, 5] of the same molecule?
The value was 1.16 ± 0.19 h.

Source: paper PMC5064002, “Sintokamide A Is a Novel Antagonist of Androgen Receptor That Uniquely Binds Activation Function-1 in Its Amino-terminal Domain” (The Journal of Biological Chemistry, 2016)
